The source of these data is article PMC6927413 (Chemical Communications (Cambridge, England), 2019).

Each structure is given as a SMILES string. “Also recorded” adds a separate entry of the source. Read-outs that look alike come from different tables or passages of the source.

Assay [1] deals with T1, psBBOX-Y201C-BFA (psBBOX*) (Pseudomonas sp., UniProt P80193, Y201C).
T1 construct: hexa-His tag (pCOLDI) (N); made in house; host or cells: E. coli BL21 (DE3)
The experiment in a line: 1H NMR inhibition assay of psBBOX-Y201C-BFA (psBBOX*) catalysed GBB turnover. Format: biochemical, Pseudomonas sp. AK1. How it is done:
(§1) in 20 mM HCl in D2O), 200 μM GBB (Cl- salt), 600 μM 2OG, in Tris-d11 (pH 7.5 in H 2O).
(§2) 2OG, in phosphate buffer (50 mM, pH 7.1, pD 7.5, in D2O). […]
([(NH4)2Fe(SO4)2.6H2O] in 20mM HCl in D2O), 600 μM 2OG, 500 μM L-ascorbate (di-sodium salt), in Tris-d11 ( p H 7 . 5 i n H 2O ) . […]

Assay [2] has as its target T2, wt-psBBOX (Pseudomonas sp., UniProt P80193). The following applies: 2 μM psBBOX, 50 μM metal, 50 mM HEPES pH 7.5; for Tm Shift: relative to protein without metal. How it is done: psBBOX Differential Scanning Fluorimetry (DSF) assays
See also Supplementary Figure S5. […]
concentration 50 μM). Controls contained 10 μL of buffer instead of metal solution. 2 mL of master mix was prepared by mixing 1.25 mL stock of sypro orange (made by diluting 1 μL of […]
and 739 μl of 50 mM HEPES pH 7.5. […]
μL. Metal solutions were made freshly. Experiments was carried out in triplicate.
DSF was performed using a MiniOpticon Real-Time PCR Detection System (Bio-Rad), monitoring protein unfolding using SYPRO orange (Invitrogen) according to reported […]
nm) filters were used for excitation and the emission, respectively. Reaction mixtures contained: 2 μM protein, 50 μM metal and 1 × SYPRO orange (final volume 50 μL). Reagents were prepared in 50 mM HEPES buffer pH 7.5. Iron solution was prepared shortly before […]
temperature increased linearly by 1 °C per minute.
The inflection point, representing Tm, was calculated by fitting the Boltzmann equation to the sigmoidal curves obtained; data were processed using GraphPad Prism 5.0. The Tm shift caused by the addition of small molecules/fragments was determined by subtraction of the “reference” Tm (protein without metal) from the Tm obtained in the presence of the metal.

The target of assay [3] is T2, wt-psBBOX. The following applies: Km for 2OG; cited from earlier work.
For assay [4], the target named is T3, psBBOX (Pseudomonas sp., UniProt P80193).
T3 construct: N-terminal hexa-His tag (pCOLD I vector); printed for the Y201C variant, inferred for wild type from the pCOLD template (N); made in house; host or cells: Escherichia coli
Format: binding, Pseudomonas sp. AK1. The following applies: 1H NMR reporter assay; for GBB displacement: titration into psBBOX-Zn(II)-2OG-GBB complex; for displacement of GBB and 2OG from the psBBOX active site: wild-type psBBOX. An excerpt:
NMR based reporter BBOX assays, using either Zn^(II) or Mn^(II) (making use of paramagnetic relaxation enhancement (PRE)) to observe ligand binding are reported.[25] These enable monitoring of co/substrate 2OG/γ-butyrobetaine (GBB; 3) psBBOX binding and inform on binding modes of inhibitors, including whether they displace GBB and/or 2OG. We now report ^19F NMR studies on ligand binding to BBOX; the work was initiated following ^1H NMR observations concerning the binding of Mildronate to psBBOX.
Since psBBOX is dimeric[21],[22] (Fig. 1C), these observations led to the proposal that binding of a second molecule of GBB (or Mildronate) to the psBBOX-Zn^(II)-2OG–GBB complex strengthens binding of the first GBB molecule, i.e. there is cooperativity in substrate binding between the monomers of the dimer.

Assay [5] deals with T1, psBBOX-Y201C-BFA (psBBOX*). The experiment in a line: 1H NMR binding assay with psBBOX-Y201C-BFA (psBBOX*). Details: species or system Pseudomonas sp. AK1. The protocol: as §1, §2
For the next assay, the target named is T4, psBBOX*-Zn(II) (Pseudomonas sp., UniProt P80193, Y201C).
T4 construct: hexa-His tag (pCOLDI) (N); made in house; host or cells: E. coli BL21 (DE3)
Briefly: Protein-observed 19F NMR (PrOF) ligand titrations with psBBOX*. The following applies: for effect on the original psBBOX* 19F NMR signal: titration with psBBOX*-Zn(II). Format: binding, Pseudomonas sp. AK1. The protocol: NMR materials and methods2 […]
broadening of 20 Hz was applied using MestReNova version 11.0. Spectra were referenced to […]
contained: 100 μM psBBOX* in Tris buffer (50 mM, pH 7.5) and 200 mM NaCl in 90% H2O and […]

The test system of a further assay is hBBOX. The conditions noted are these: cited from earlier work.
Another assay concerns BBOX. More on the design: method as in earlier work. The following applies: 2OG-competing, metal-chelating BBOX inhibitor; cited from earlier work.
In assay [6] the target is T2, wt-psBBOX. The experiment in a line: Fluoride release assay. More on the design: N-terminal hexa-His tag (pCOLD I vector); printed for the Y201C variant, inferred for wild type from the pCOLD template (N); made in house; host or cells: Escherichia coli. The class given is biochemical, Pseudomonas sp. AK1. The protocol:
The combined NMR studies on ligand binding led to the proposal that a new BBOX inhibitor scaffold could be identified by directly incorporating analogues of identified 2OG and GBB binding motifs, comprising appropriately positioned metal chelating and quaternary ammonium moieties, giving a ‘co-substrate/substrate’ mimic. With this in mind, RL190B (8) was synthesised (ESI ^†); it is a relatively potent psBBOX inhibitor (IC50 = 5 μM (fluoride release assay)[31]). […] By contrast with other ligand titrations using psBBOX* such significant line broadening was not observed (e.g. Fig. S11–S13, ESI ^†). Broadening of signals in PrOF NMR is often typical of weaker inhibitors; the significant (and unusual amongst studied compounds) signal attenuation observed with (8) may be a result of its binding in both 2OG and GBB cavities. This may cause changes of conformational mobility/protein destabilisation, potentially yielding a number of indistinct conformational states.
(B) RL190B is a 2OG and substrate mimic. (C) RL190B causes attenuation of the psBBOX* ^19F NMR signal. (D) RL190B inhibition of wt-psBBOX as determined by a fluoride release assay.[31] TEXT PRINTED IN THE PICTURE: (D) RL190B (8): IC50 (psBBOX) = 5 μM

Assay [7] concerns the target T3, psBBOX. The conditions noted are these: reported GBB substrate analogues, hydroxylated to L-carnitine analogues; cited from earlier work.

T2 sequence (P80193 whole entry): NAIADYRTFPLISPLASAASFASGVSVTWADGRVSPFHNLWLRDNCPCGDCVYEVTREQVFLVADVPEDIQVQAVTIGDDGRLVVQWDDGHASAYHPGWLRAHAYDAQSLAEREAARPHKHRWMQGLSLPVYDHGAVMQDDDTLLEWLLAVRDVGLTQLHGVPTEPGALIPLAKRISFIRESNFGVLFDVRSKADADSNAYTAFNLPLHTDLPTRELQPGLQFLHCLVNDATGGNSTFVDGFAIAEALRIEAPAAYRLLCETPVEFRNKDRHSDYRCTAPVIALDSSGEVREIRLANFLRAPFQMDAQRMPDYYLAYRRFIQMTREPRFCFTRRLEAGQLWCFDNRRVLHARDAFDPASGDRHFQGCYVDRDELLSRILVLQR
T1 sequence (P80193 whole entry Y201C): as the sequence (P80193 whole entry) above, with Y201C counted along it
T4 sequence (P80193 whole entry Y201C): as the sequence (P80193 whole entry) above, with Y201C counted along it

With `O=C(N[C@@H](CSCc1ccccn1)C(=O)O)c1ncccc1O` [AR692B], it took 245 µM to reach half-maximal inhibition in assay [1] (IC50).
As to `[Fe+2]` [Fe(II)], the “Tm Shift” value at wt-psBBOX [2] stood at 8.4±0.7 °C.
For the molecule `O=C(O)CCC(=O)C(=O)O` [2OG, 2-oxoglutarate], at wt-psBBOX [3], the Km was 532 µM.
For `[Mn+2]` [Mn(II)], at wt-psBBOX [2], the Tm is on record as 17.7±1.4 and the “Tm Shift” value stood at 1.3±0.2 °C.
`C[N+](C)(C)NCCC(=O)[O-]` [Mildronate, reference compound]: the GBB displacement on psBBOX [4] is listed as not above 60%; at psBBOX [4] (listed as 4) it was approximately 60%. Moreover, the affinity in assay [5], expressed as Kd, was 12.3 ± 1 µM. On psBBOX*-Zn(II) (psBBOX*-Zn(II)-GBB-2OG), the “change of 19F NMR spectrum on addition to psBBOX*-Zn(II)-GBB-2OG” value was “does not change; also recorded: did not manifest detectable changes”. For the same molecule, the IC50 in the assay on hBBOX is 34 to 60 µM. For the same molecule, the “inhibition of psBBOX* catalysed GBB turnover” value in assay [1] (1H NMR, 2.5 μM psBBOX*, 100 μM Fe(II), 200 μM GBB, 600 μM 2OG) is on record as “unable to detect inhibition”.
Take `[Zn+2]` [Zn(II)]: at wt-psBBOX [2], the Tm is on record as 6.6±0.7 and the “Tm Shift” value was 12.8±1.3 °C.
For `[Na+]` [Na(I)], on wt-psBBOX [2], the Tm worked out at 20.5±0.4 and the “Tm Shift” value amounted to 0.2±0.1 °C.
In the case of `[Ni+2]` [Ni(II)], on wt-psBBOX [2], the Tm is 12.3±0.2 and the “Tm Shift” value is 18.1±0.1 °C.
On to `O=C(N[C@@H](Cc1c[nH]c2ccccc12)C(=O)O)c1nc(Cl)c2ccccc2c1O` [compound 5], for which the IC50 in the assay on BBOX is 0.9 µM.
As to `C[N+](C)(C)CCCCN(O)C(=O)/C=C/C(=O)O` [RL190B, (E)-4-(3-Carboxy-N-hydroxyacrylamido)-N,N,N-trimethylbutan-1-aminium], the IC50 at wt-psBBOX [6] was 5 µM; in assay [1] it was 15 µM. The “displacement of GBB and 2OG from the psBBOX active site” value was “displaces both GBB and 2OG” at psBBOX [4]; “displace both GBB and 2OG” on psBBOX [4] (listed as 8). The “effect on the original psBBOX* 19F NMR signal” value on psBBOX*-Zn(II) is “attenuation”; on psBBOX*-Zn(II) (listed as 8), “significant broadening and almost complete attenuation”.
For the molecule `[Mg+2]` [Mg(II)], at wt-psBBOX [2], the Tm came to 20.1±0.2 and the “Tm Shift” value was 0.0±0.1 °C.
Consider `C[P+](C)(C)CCCC(=O)[O-]` [P-GBB], for which the “substrate for psBBOX” value at psBBOX [7] is reported as “substrates”.
Turning to `[Co+2]` [Co(II)], at wt-psBBOX [2], the Tm is 6.6±2.2 and the “Tm Shift” value stood at 15.7±0.8 °C.
Take `[K+]` [K(I)]: on wt-psBBOX [2], the “Tm Shift” value was 0.0±0.1 °C.
For the molecule `[Cu+2]` [Cu(II)], at wt-psBBOX [2], the Tm is 6.3±0.5 and the “Tm Shift” value was 12.4±1.1 °C.
